This passage reports IC50 results from US11964941B2, “5-Bromo-indirubins” (City of Hope, priority 2014, dated 2024).

One experiment has as its system A2058 melanoma cells. The experiment can be described thus: MTS cell viability, A2058 melanoma cells. The note with it: 48 h, read-out: IC50 for 50% inhibition of viability. It is filed as cell-based, human. The procedure: (§1) MTS assays were performed for cell viability. Human cancer cells were seeded in 96-well plates (2500 cells/well for solid tumors, 5000 cells/well for blood tumors), incubated overnight at 37 C in 5% CO2, and exposed to 5IN-1NH1 or 5IN-1NH1s in a dose-dependent manner for 48 h. See FIGS. 1A-1B, 2A-2B, 3, 4A-4B, and 6A-6B. Dimethyl sulfoxide (DMSO) was used as the vehicle control. Viable cell numbers were determined by tetrazolium conversion to its formazan dye and absorbance was measured at 490 nm using an automated ELISA plate reader. Each experiment was performed in quadruplicate. IC50 values were determined using CalcuSyn software (BIOSOFT®, Cambridge GB).

In experiment [1] the test system is DU145 prostate cancer cells. The experiment can be described thus: MTS cell viability, DU145 prostate cancer cells. It is filed as cell-based, human. The note with it: 48 h, read-out: IC50 for 50% inhibition of viability. The protocol:
as §1

For experiment [2], the system named is SKOV3 ovarian cancer cells. The experiment can be described thus: MTS cell viability, SKOV3 ovarian cancer cells. The experiment is classed as cell-based, human. The note with it: 48 h, read-out: IC50 for 50% inhibition of viability. The protocol: as §1
For a further experiment, the system named is MOLM13 AML cells. The experiment in a line: MTS cell viability, MOLM13 AML cells (FLT3-ITD). The experiment is classed as cell-based, human. The note with it: 48 h, read-out: IC50 for 50% inhibition of viability. The procedure:
as §1
Compound (1289) inhibits viabilities of MV4-11 and MOLM13 AML cells that harbor an internal tandem duplication (ITD) mutation. MTS assays were performed for cell viability. Human MV4-11 and MOLM13 AML cells (5000/well) were seeded in 96-well plates, incubated overnight at 37° C. in 5% CO2, and exposed to compound (1289) in a dose-dependent manner for 48 h. Dimethyl sulfoxide (DMSO) was used as the vehicle control. Viable cell numbers were determined by tetrazolium conversion to its formazan dye and absorbance was measured at 490 nm using an automated ELISA plate reader. Each experiment was performed in quadruplicate. IC50 values were determined using CalcuSyn software.

The test system of the next experiment is KCL22 CML cells. The experiment in a line: MTS cell viability, KCL22 CML cells. The experiment is classed as cell-based, human. The note with it: 48 h, read-out: IC50 for 50% inhibition of viability. The protocol: as §1
The target of a further experiment is FLT3 (D835Y) (Homo sapiens, UniProt P36888, D835Y). The experiment in a line: In vitro kinase assay, recombinant FLT3 (D835Y). It is filed as biochemical. The note with it: 33P-ATP, 120 min. The protocol: (§2) The kinase assays were performed with recombinant class III receptor tyrosine kinase family proteins. Briefly, proteins, freshly prepared substrates and ^33P-ATP (specific activity 0.01 μCi/μl final) were mixed in reaction buffer (20 mM HEPES pH 7.5, 10 mM MgCl2, 1 mM EGTA, 0.02% Brij35, 0.02 mg/ml BSA, 0.1 mM Na3VO4, 2 mM DTT) in the presence of DMSO as control or 5IN-1NH1s. The mixtures were reacted for 120 min at room temperature. Samples were transferred onto P81 ion exchange paper and filters were extensively washed with 0.75% phosphoric acid. The radioactivities were monitored. IC50 values were determined using GraphPad Prism software.
as §2, with “Kinase” for “The kinase”, “FLT3, mutated FLT3-ITD and D835I mutant FLT3 kinases.” for “class III receptor tyrosine kinase family proteins.”, “compound (1289).” for “5IN-1NH1s.”

The target in another experiment is FLT3 (ITD) (Homo sapiens, UniProt P36888). The experiment in a line: In vitro kinase assay, recombinant FLT3 (ITD). The experiment is classed as biochemical. The note with it: 33P-ATP, 120 min. The protocol: as §2
as §2, with “Kinase” for “The kinase”, “FLT3, mutated FLT3-ITD and D835I mutant FLT3 kinases.” for “class III receptor tyrosine kinase family proteins.”, “compound (1289).” for “5IN-1NH1s.”

In the next experiment the target is c-KIT (Homo sapiens, UniProt P10721). The experiment can be described thus: In vitro kinase assay, recombinant c-KIT. It is filed as biochemical. The note with it: 33P-ATP, 120 min. The procedure:
(§3) Compound (1289) inhibits activities of FMS, PDGFR α, PDGFR β and c-KIT in vitro. The kinase assays were performed with recombinant FMS, PDGFR α, PDGFR β and c-KIT proteins. Briefly, proteins, freshly prepared substrates and ^33P-ATP (specific activity 0.01 μCi/μl final) were mixed in reaction buffer (20 mM HEPES pH 7.5, 10 mM MgCl2, 1 mM EGTA, 0.02% Brij35, 0.02 mg/ml BSA, 0.1 mM Na3VO4, 2 mM DTT) in the presence of DMSO as control or compound (1289). The mixtures were reacted for 120 min at room temperature. Samples were transferred onto P81 ion exchange paper and filters were extensively washed with 0.75% phosphoric acid. The radioactivities were monitored.
as §2

In another experiment the target is FMS (Homo sapiens, UniProt P07333). The experiment can be described thus: In vitro kinase assay, recombinant FMS. It is filed as biochemical. The note with it: 33P-ATP, 120 min. The protocol:
as §3, §2

For another experiment, the target named is ABL1 (T315I) (Homo sapiens, UniProt P00519, T315I). The experiment can be described thus: Kinase profiling in vitro, ABL1 (T315I). The note with it: recombinant ABL1 (T315I), 33P-ATP, 120 min. The experiment is classed as biochemical. The procedure: as §2, with “recombinant” for “recombinant class III receptor tyrosine kinase family”
A further experiment concerns the target AKT1 (Homo sapiens, UniProt P31749). The experiment in a line: Kinase profiling in vitro, AKT1. The experiment is classed as biochemical. The note with it: recombinant AKT1, 33P-ATP, 120 min. The protocol: as §2, with “recombinant” for “recombinant class III receptor tyrosine kinase family”
A further experiment has as its target Aurora A (Homo sapiens, UniProt O14965). The experiment can be described thus: Kinase profiling in vitro, Aurora A. It is filed as biochemical. The note with it: recombinant Aurora A, 33P-ATP, 120 min. The protocol: as §2, with “recombinant” for “recombinant class III receptor tyrosine kinase family”
The next experiment deals with c-Src (Homo sapiens, UniProt P12931). The experiment in a line: Kinase profiling in vitro, c-Src. The experiment is classed as biochemical. The note with it: recombinant c-Src, 33P-ATP, 120 min. The protocol:
as §2, with “recombinant” for “recombinant class III receptor tyrosine kinase family”

In a further experiment the target is CDK2/cyclin A (Homo sapiens, UniProt P24941). The experiment can be described thus: Kinase profiling in vitro, CDK2/cyclin A. It is filed as biochemical. The note with it: recombinant CDK2/cyclin A, 33P-ATP, 120 min. The procedure: as §2, with “recombinant” for “recombinant class III receptor tyrosine kinase family”
For the next experiment, the target named is JAK2 (Homo sapiens, UniProt O60674). The experiment in a line: Kinase profiling in vitro, JAK2. The experiment is classed as biochemical. The note with it: recombinant JAK2, 33P-ATP, 120 min. The procedure: as §2, with “recombinant” for “recombinant class III receptor tyrosine kinase family”
In the next experiment the target is KDR/vEGFR2 (Homo sapiens, UniProt P35968). The experiment in a line: Kinase profiling in vitro, KDR/vEGFR2. It is filed as biochemical. The note with it: recombinant KDR/vEGFR2, 33P-ATP, 120 min. The protocol: as §2, with “recombinant” for “recombinant class III receptor tyrosine kinase family”
KDR/vEGFR2, sequence (P35968 20-1356): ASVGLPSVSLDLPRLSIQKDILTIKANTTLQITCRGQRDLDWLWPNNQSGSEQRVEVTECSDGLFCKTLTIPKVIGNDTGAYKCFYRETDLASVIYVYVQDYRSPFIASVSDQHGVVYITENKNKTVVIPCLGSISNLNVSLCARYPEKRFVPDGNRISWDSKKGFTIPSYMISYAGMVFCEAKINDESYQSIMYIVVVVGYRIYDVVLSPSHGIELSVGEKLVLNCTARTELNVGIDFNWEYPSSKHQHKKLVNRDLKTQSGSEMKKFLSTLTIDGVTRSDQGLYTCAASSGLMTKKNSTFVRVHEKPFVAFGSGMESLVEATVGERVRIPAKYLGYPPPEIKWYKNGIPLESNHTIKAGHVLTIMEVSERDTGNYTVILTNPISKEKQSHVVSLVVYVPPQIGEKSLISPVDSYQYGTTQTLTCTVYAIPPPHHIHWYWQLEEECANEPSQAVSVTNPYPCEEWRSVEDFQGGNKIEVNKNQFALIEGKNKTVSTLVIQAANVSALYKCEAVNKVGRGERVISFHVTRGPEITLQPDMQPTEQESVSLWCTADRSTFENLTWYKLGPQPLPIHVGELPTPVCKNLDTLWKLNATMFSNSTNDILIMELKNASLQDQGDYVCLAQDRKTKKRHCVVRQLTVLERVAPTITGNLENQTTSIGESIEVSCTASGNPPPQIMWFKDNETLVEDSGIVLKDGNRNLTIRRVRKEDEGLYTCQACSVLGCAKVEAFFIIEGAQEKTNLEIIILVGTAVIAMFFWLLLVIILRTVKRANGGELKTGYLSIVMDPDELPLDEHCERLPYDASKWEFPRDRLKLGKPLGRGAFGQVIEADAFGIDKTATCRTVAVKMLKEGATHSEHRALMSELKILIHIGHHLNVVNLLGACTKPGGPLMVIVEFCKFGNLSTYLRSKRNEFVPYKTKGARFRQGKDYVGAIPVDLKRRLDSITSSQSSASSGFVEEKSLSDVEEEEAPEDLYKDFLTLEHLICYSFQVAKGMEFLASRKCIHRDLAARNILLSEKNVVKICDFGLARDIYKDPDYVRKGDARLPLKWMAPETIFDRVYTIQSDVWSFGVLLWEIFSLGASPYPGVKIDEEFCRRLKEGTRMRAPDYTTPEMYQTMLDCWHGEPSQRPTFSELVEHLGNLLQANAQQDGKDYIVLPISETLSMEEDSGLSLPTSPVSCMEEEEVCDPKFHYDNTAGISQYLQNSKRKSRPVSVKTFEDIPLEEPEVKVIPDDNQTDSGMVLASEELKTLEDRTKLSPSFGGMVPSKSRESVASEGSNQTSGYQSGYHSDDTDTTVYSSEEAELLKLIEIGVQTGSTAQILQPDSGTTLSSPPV

JAK2, sequence (O60674 whole entry, species assumed): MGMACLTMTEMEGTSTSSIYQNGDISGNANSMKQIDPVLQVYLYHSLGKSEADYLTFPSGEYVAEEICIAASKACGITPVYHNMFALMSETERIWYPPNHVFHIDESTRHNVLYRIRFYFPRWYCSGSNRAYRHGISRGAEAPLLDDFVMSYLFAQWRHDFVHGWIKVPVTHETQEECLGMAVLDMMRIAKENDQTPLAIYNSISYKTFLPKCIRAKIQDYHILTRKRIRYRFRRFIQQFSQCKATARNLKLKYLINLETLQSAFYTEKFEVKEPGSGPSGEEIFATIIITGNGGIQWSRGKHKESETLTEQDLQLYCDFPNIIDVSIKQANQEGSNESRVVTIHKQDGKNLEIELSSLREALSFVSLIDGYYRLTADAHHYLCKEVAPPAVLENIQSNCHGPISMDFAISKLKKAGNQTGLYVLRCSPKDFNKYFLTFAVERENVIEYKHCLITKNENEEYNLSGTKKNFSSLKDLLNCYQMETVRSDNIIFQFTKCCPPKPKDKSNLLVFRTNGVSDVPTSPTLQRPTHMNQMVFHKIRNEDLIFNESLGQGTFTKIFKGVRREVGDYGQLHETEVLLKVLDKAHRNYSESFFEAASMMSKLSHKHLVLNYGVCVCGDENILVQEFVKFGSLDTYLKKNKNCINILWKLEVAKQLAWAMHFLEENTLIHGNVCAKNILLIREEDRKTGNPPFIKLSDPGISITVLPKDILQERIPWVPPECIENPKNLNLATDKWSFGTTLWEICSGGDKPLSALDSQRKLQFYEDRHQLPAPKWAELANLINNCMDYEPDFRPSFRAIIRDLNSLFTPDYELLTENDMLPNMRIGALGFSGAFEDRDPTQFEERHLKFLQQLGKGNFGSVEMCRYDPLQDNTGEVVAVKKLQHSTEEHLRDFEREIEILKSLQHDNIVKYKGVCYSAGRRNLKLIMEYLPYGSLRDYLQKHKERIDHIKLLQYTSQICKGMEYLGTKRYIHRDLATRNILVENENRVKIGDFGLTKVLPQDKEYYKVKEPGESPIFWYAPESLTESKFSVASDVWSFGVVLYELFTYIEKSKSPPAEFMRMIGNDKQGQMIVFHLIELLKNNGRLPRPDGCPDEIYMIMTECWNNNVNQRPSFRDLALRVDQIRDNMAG
FMS, sequence (P07333 20-972, species assumed): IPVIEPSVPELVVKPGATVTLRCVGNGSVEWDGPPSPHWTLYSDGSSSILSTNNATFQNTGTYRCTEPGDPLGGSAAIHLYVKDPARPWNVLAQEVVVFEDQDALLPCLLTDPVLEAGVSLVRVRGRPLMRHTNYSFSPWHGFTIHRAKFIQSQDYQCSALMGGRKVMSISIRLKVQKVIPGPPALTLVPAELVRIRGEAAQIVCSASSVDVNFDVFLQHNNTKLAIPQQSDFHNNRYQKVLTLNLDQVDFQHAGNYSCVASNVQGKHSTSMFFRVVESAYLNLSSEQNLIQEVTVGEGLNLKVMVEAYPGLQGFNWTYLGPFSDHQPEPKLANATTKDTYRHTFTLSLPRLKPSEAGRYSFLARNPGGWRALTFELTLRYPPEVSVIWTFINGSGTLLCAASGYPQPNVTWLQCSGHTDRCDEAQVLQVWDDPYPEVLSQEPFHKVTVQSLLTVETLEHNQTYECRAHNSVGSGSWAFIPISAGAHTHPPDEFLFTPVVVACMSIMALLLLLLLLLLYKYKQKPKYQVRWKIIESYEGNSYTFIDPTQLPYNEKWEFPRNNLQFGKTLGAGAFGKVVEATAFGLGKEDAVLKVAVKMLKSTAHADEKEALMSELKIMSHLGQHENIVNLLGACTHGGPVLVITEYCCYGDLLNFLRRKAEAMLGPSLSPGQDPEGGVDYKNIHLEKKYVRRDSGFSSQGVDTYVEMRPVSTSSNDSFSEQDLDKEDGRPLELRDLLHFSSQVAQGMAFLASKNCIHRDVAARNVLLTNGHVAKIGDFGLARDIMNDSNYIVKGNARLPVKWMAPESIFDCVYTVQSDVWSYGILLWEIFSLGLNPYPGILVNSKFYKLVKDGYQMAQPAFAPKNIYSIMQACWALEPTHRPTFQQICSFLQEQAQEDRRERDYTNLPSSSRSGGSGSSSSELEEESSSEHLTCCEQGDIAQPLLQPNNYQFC
AKT1, sequence (P31749 whole entry, species assumed): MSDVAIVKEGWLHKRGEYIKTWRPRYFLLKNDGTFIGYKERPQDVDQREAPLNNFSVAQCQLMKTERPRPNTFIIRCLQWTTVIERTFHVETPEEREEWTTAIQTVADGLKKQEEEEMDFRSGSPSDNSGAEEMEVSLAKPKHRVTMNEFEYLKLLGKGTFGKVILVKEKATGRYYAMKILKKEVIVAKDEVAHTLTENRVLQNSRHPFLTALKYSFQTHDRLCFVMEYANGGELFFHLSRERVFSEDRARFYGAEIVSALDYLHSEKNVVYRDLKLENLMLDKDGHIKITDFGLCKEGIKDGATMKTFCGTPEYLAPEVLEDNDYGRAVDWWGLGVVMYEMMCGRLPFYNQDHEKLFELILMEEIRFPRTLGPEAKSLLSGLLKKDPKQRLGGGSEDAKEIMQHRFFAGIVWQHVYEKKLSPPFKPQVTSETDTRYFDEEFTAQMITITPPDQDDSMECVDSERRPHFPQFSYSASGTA
c-KIT, sequence (P10721 26-976): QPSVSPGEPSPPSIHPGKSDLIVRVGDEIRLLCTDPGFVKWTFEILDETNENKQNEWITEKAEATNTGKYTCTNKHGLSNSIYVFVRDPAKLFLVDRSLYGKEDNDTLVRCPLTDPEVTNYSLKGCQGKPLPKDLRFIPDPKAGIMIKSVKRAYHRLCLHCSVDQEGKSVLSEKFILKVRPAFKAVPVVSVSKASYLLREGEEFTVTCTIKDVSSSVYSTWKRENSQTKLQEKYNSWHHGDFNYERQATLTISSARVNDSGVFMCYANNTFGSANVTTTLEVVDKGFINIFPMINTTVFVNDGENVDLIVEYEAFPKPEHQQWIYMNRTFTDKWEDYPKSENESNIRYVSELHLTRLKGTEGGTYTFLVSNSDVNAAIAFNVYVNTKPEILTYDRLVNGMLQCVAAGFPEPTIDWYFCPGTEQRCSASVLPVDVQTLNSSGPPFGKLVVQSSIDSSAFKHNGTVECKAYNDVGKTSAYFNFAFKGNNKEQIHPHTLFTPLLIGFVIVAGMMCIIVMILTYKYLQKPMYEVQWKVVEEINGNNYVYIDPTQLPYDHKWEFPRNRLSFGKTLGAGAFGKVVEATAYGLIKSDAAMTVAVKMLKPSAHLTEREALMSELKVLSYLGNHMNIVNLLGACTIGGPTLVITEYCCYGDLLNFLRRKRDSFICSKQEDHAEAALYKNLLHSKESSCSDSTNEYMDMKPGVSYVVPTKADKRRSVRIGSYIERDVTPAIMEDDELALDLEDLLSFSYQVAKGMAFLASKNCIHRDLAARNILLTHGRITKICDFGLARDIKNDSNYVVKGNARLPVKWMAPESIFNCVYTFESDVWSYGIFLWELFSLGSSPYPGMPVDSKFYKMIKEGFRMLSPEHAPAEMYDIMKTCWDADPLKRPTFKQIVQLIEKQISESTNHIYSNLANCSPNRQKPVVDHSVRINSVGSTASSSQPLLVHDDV

As for `CNCCO/N=C1/C(=C2/C(=O)Nc3ccc(Br)cc32)Nc2ccccc21` [5IN-1NH1s], the IC50 is 0.0889 µM in the experiment on A2058 melanoma cells; 0.0447 µM in [1]; 0.169 µM in experiment [2]; 0.0075 µM with MOLM13 AML cells; 0.0728 µM with KCL22 CML cells; under 0.0005 µM at FLT3 (D835Y). Moreover, the 50% inhibitory concentration (IC50) was determined as 0.00109 µM on FLT3 (ITD); 0.321 µM at c-KIT; 0.016 µM at FMS; 3.4 µM at ABL1 (T315I); 0.327 µM on AKT1; 0.217 µM at Aurora A. Also, the half-maximal inhibitory concentration (IC50) on c-Src stood at 0.0138 µM; at CDK2/cyclin A it was 0.00108 µM; at JAK2, 0.169 µM; on KDR/vEGFR2, 0.245 µM.
